Consider 1 molecule from PMC6882824, “Engineering of chimeric peptides as antagonists for the G protein-coupled receptor, RXFP4” (Scientific Reports, 2019).

Assay [1] deals with T1, RXFP4 (Homo sapiens, UniProt Q8TDU9). As to the kind of experiment: Competition binding in CHO-K1-RXFP4 cells (Eu-DTPA-mINSL5). Details: expressed in transfected cells; host or cells: CHO-K1 (ATCC), stably transfected. Particulars: SEM.
Assay [2] addresses T2, RXFP3 (Homo sapiens, UniProt Q9NSD7).
T2 construct: expressed in transfected cells; host or cells: CHO-K1 (ATCC), stably transfected
T2 sequence (Q9NSD7 1-469): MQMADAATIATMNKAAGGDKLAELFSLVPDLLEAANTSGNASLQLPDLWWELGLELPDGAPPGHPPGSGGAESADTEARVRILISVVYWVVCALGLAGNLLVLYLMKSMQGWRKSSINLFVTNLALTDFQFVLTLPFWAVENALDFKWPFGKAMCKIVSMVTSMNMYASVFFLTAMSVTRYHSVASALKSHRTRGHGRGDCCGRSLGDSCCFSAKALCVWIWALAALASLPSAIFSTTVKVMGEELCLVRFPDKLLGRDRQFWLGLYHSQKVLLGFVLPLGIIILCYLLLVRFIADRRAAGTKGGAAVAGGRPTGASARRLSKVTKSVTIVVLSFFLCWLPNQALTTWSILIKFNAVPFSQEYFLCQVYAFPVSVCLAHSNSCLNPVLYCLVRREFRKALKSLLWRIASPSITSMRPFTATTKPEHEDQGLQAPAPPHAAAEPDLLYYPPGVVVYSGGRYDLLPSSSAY
As to the kind of experiment: Competition binding in CHO-K1-RXFP3 cells (Eu-H3B1-22R). Conditions: SEM. In outline:
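Whole CHO-K1 cells stably expressing RXFP3 or RXFP4 were competed against 5 nM Eu-H3B1-22R (RXFP3) or 5 nM Eu-DTPA-mINSL5 (RXFP4), with europium time-resolved fluorescence as read-out. Specific binding fitted to one-site curves; triplicates, at least three independent experiments.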

For assay [3], the system named is RXFP3. Conditions: HEK-293s cells expressing rat and human RXFP3; cited from earlier work.
Assay [4] has as its target T2, RXFP3. The assay is described as follows: cAMP agonist assay (inhibition of forskolin-induced cAMP, pCRE β-galactosidase reporter) in CHO-K1-RXFP3 cells. It counts as cell-based. Particulars: CHO-K1-RXFP3 cells, inhibition of 5 µM forskolin-induced cAMP, 6 hours; mean ± SEM, n in cell. The method, boiled down: (§1)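 Transfected cells stimulated with forskolin (5 µM RXFP3, 1 µM RXFP4); agonist mode ±peptide for 6 h, expressed as % forskolin activity, with 0% set by 1 µM reference agonist. Antagonist mode: peptide for 10 min, then ~EC80 agonist for 6 h. Triplicates, ≥3 independent experiments, mean ± SEM.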

Assay [5] concerns the target T2, RXFP3. Conditions: cited from earlier work.
Assay [6] relates to RXFP3. Particulars: SK-N-MC/CRE-β-gal cells expressing human RXFP3; cited from earlier work. The text has this: Here we have chemically synthesized and pharmacologically characterized ΔR3/I5 for binding and cAMP potency in CHO cells stably expressing RXFP3 (CHO-RXFP3) or RXFP4 (CHO-RXFP4).
The target of assay [7] is T2, RXFP3. Particulars: CRE-reporter gene assay; cited from earlier work.
The target in assay [8] is T1, RXFP4. The arrangement: expressed in transfected cells; method as in PMID 17606621. Particulars: SK-N-MC/CRE-β-gal cells expressing human RXFP4; cited from earlier work.
Assay [9] deals with T1, RXFP4. The assay is described as follows: cAMP antagonist assay against 16.6 nM analogue 13 in CHO-K1-RXFP4 cells. It counts as cell-based. Details: expressed in transfected cells; host or cells: CHO-K1 (ATCC), stably transfected. In outline:
as §1

The target of assay [10] is T2, RXFP3. As to the kind of experiment: cAMP antagonist assay against 10 nM analogue 2 in CHO-K1-RXFP3 cells. It counts as cell-based. The method, boiled down:
as §1

Assay [11] concerns the target T1, RXFP4. As to the kind of experiment: cAMP agonist assay (inhibition of forskolin-induced cAMP, pCRE β-galactosidase reporter) in CHO-K1-RXFP4 cells. The arrangement: expressed in transfected cells; host or cells: CHO-K1 (ATCC), stably transfected. Conditions: CHO-K1-RXFP4 cells, inhibition of 1 µM forskolin-induced cAMP, 6 hours; mean ± SEM, n in cell. It counts as cell-based.

Entries after “also recorded” stand apart in the source; their conditions may differ.

T1 sequence (Q8TDU9 whole entry): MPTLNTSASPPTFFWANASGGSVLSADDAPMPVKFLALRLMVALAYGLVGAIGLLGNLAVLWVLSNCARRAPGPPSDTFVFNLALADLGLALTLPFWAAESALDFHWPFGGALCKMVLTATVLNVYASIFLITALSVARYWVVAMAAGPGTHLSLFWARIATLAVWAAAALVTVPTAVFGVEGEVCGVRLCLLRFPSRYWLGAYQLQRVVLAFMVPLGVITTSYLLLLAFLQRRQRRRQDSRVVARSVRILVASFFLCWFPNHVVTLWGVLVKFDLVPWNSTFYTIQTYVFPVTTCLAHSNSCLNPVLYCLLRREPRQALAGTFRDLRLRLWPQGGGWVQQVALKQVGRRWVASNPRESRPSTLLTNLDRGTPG

Broadly, the Ki is the dissociation constant of the complex between target and ligand, obtained from inhibition or displacement. Read a high Ki as weaker binding. A word on the IC50: it is the concentration needed to halve the response being measured. High values mean weaker potency in that assay, low ones greater potency in that assay. The term Emax denotes the greatest response seen or fitted, relative to the assay's reference. As to `CC[C@H](C)[C@@H]1NC(=O)[C@H](Cc2ccccc2)NC(=O)[C@H](CCC(=O)O)NC(=O)[C@H](CCCNC(=N)N)NC(=O)CNC(=O)[C@@H](NC(=O)[C@H](CC(C)C)NC(=O)[C@H](CCCNC(=N)N)NC(=O)[C@@H](NC(=O)CNC(=O)[C@H](Cc2ccc(O)cc2)NC(=O)[C@@H]2CCCN2C(=O)[C@H](C)NC(=O)[C@H](C)NC(=O)[C@@H](N)CCCNC(=N)N)C(C)C)CSSC[C@@H]2NC(=O)[C@@H](NC(=O)[C@H](CC(C)C)NC(=O)[C@@H](NC(=O)[C@H](CCC(N)=O)NC(=O)[C@H](CC(C)C)NC(=O)[C@H](CC(=O)O)NC(=O)[C@@H]3CCC(=O)N3)[C@@H](C)O)CSSC[C@H](NC(=O)CNC(=O)[C@H](CC(=O)O)NC(=O)[C@H]([C@@H](C)O)NC2=O)C(=O)N[C@@H](CO)C(=O)N[C@@H](CCSC)C(=O)N[C@@H]([C@@H](C)O)C(=O)N[C@@H](CC(=O)O)C(=O)N[C@@H](CC(C)C)C(=O)N[C@@H](CO)C(=O)N[C@@H](C)C(=O)N[C@@H](CC(C)C)C(=O)N[C@H](C(=O)O)CSSC[C@@H](C(=O)N[C@@H](CCCNC(=N)N)C(=O)O)NC(=O)[C@H]([C@@H](C)O)NC(=O)[C@H](Cc2ccccc2)NC(=O)[C@H]([C@@H](C)CC)NC(=O)[C@H](C(C)C)NC(=O)[C@H](C)NC(=O)[C@H](CCCNC(=N)N)NC1=O` [ΔR3/I5, reference compound], the figures for the Ki in [1] and in [2] were 4.57 nM and 9.77 nM, respectively. For the same molecule, the “Agonism in [35S]-GTPγS binding, cAMP activation and dynamic mass redistribution” value in assay [3] is listed as “partial agonist”. In assay [4], the “RXFP3 Activity pEC50” value is given as “unable to activate RXFP3; also recorded: No activity (3)”. Also, in assay [5], the “Agonism of p38MAPK, ERK1/2 and cAMP signalling at RXFP3” value is given as “weak partial agonist”. In addition, in [6], the “Agonist activity at RXFP3 (original report)” value is “no agonist activity”. In assay [7], the “Agonist activity in CHO-RXFP3 cells” value is given as “no agonist activity”. In assay [8], the “Agonist activity at RXFP4 (original report)” value was “no agonist activity”. For the same molecule, the half-maximal inhibitory concentration (IC50) in [9] was determined as 17.4 nM; in [10], 117 nM. The Emax in assay [9] (SEM, read-out: RXFP4 Emax (antagonist efficacy)) was determined as 36.7 ± 7.4%; in assay [10] (SEM, read-out: RXFP3 Emax (antagonist efficacy)) it was 100 ± 3.8%. Moreover, the “RXFP4 Activity pEC50” value in assay [11] was “Weak partial agonist (5)”.
